Experimental data published in PubChem BioAssay (NCI).
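96-well plates; 48 h exposure; 5 concentrations. Endpoints by linear interpolation between flanking doses. Not reached: highest tested concentration assigned. TGI is the concentration that stops growth completely.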

Assays:
Assay in all cases: NCI-60 cell line screen, 48 h
M14 melanoma = system: M14 melanoma
MDA-N = system: MDA-N
SK-MEL-28 melanoma = system: SK-MEL-28 melanoma
MCF7 breast = system: MCF7 breast
ACHN renal = system: ACHN renal
SF-268 CNS = system: SF-268 CNS
OVCAR-4 ovarian = system: OVCAR-4 ovarian
MALME-3M melanoma = system: MALME-3M melanoma
EKVX NSCLC = system: EKVX NSCLC
NCI-H522 lung = system: NCI-H522 lung
K-562 leukemia = system: K-562 leukemia
SF-295 CNS = system: SF-295 CNS
RPMI-8226 leukemia = system: RPMI-8226 leukemia
SNB-19 CNS = system: SNB-19 CNS
NCI-H226 lung = system: NCI-H226 lung
HCT-116 colon = system: HCT-116 colon
PC-3 prostate = system: PC-3 prostate
HS 578T breast = system: HS 578T breast
NCI-H23 lung = system: NCI-H23 lung
HCC-2998 colon = system: HCC-2998 colon
CAKI-1 renal = system: CAKI-1 renal
HL-60(TB) leukemia = system: HL-60(TB) leukemia
NCI/ADR-RES ovarian = system: NCI/ADR-RES ovarian
SN12C renal = system: SN12C renal
TK-10 renal = system: TK-10 renal
DU-145 prostate = system: DU-145 prostate
SR leukemia = system: SR leukemia
HOP-62 NSCLC = system: HOP-62 NSCLC
A549 NSCLC = system: A549 NSCLC
BT-549 breast = system: BT-549 breast
SF-539 CNS = system: SF-539 CNS
OVCAR-8 ovarian = system: OVCAR-8 ovarian
COLO 205 colon = system: COLO 205 colon
HT29 colon = system: HT29 colon
UACC-257 melanoma = system: UACC-257 melanoma
SK-MEL-5 melanoma = system: SK-MEL-5 melanoma
SW-620 colon = system: SW-620 colon
MOLT-4 leukemia = system: MOLT-4 leukemia
SNB-75 CNS = system: SNB-75 CNS
OVCAR-3 ovarian = system: OVCAR-3 ovarian
786-0 renal = system: 786-0 renal
UO-31 renal = system: UO-31 renal
OVCAR-5 ovarian = system: OVCAR-5 ovarian
KM12 colon = system: KM12 colon
LOX IMVI melanoma = system: LOX IMVI melanoma
SK-OV-3 ovarian = system: SK-OV-3 ovarian
SK-MEL-2 melanoma = system: SK-MEL-2 melanoma
U251 CNS = system: U251 CNS
HCT-15 colon = system: HCT-15 colon
MDA-MB-435 = system: MDA-MB-435
CCRF-CEM leukemia = system: CCRF-CEM leukemia
RXF 393 renal = system: RXF 393 renal
UACC-62 melanoma = system: UACC-62 melanoma
T-47D breast = system: T-47D breast
IGROV1 ovarian = system: IGROV1 ovarian
HOP-92 NSCLC = system: HOP-92 NSCLC
A498 renal = system: A498 renal
MDA-MB-231 breast = system: MDA-MB-231 breast
NCI-H460 lung = system: NCI-H460 lung

Measured: TGI

O=S1(=O)OCCOS(=O)(=O)C1F
> 100 µM: M14 melanoma | MDA-N | SK-MEL-28 melanoma | MCF7 breast | ACHN renal | SF-268 CNS | OVCAR-4 ovarian | MALME-3M melanoma | EKVX NSCLC | NCI-H522 lung | K-562 leukemia | SF-295 CNS | RPMI-8226 leukemia | SNB-19 CNS | NCI-H226 lung | HCT-116 colon | PC-3 prostate | HS 578T breast | NCI-H23 lung | HCC-2998 colon | CAKI-1 renal | HL-60(TB) leukemia | NCI/ADR-RES ovarian | SN12C renal | TK-10 renal | DU-145 prostate | SR leukemia | HOP-62 NSCLC | A549 NSCLC | BT-549 breast | SF-539 CNS | OVCAR-8 ovarian | COLO 205 colon | HT29 colon | UACC-257 melanoma | SK-MEL-5 melanoma | SW-620 colon | MOLT-4 leukemia | SNB-75 CNS | OVCAR-3 ovarian | 786-0 renal | UO-31 renal | OVCAR-5 ovarian | KM12 colon | LOX IMVI melanoma | SK-OV-3 ovarian | SK-MEL-2 melanoma | U251 CNS | HCT-15 colon | MDA-MB-435 | CCRF-CEM leukemia | RXF 393 renal | UACC-62 melanoma | T-47D breast

CC(C)(Cc1ccccc1)NC1=NCCO1
> 100 µM: M14 melanoma | MDA-N | SK-MEL-28 melanoma | MCF7 breast | ACHN renal | IGROV1 ovarian | OVCAR-4 ovarian | MALME-3M melanoma | EKVX NSCLC | NCI-H522 lung | K-562 leukemia | SF-295 CNS | RPMI-8226 leukemia | SNB-19 CNS | NCI-H226 lung | HCT-116 colon | PC-3 prostate | HS 578T breast | NCI-H23 lung | HCC-2998 colon | CAKI-1 renal | HL-60(TB) leukemia | NCI/ADR-RES ovarian | HOP-92 NSCLC | TK-10 renal | DU-145 prostate | SR leukemia | A549 NSCLC | BT-549 breast | SF-539 CNS | OVCAR-8 ovarian | COLO 205 colon | HT29 colon | UACC-257 melanoma | SK-MEL-5 melanoma | SW-620 colon | MOLT-4 leukemia | SNB-75 CNS | OVCAR-3 ovarian | 786-0 renal | UO-31 renal | A498 renal | OVCAR-5 ovarian | KM12 colon | LOX IMVI melanoma | SK-OV-3 ovarian | SK-MEL-2 melanoma | MDA-MB-231 breast | U251 CNS | HCT-15 colon | MDA-MB-435 | CCRF-CEM leukemia | RXF 393 renal | NCI-H460 lung | UACC-62 melanoma
